In assay [1] the target is C-C chemokine receptor type 2 (Homo sapiens, UniProt P41597). Put plainly: Displacement of [125I]MCP1 from CCR2 in human THP1 cell membranes after 8 hrs by scintillation counting analysis. On the set-up: species or system THP-1. In general terms: In a radioligand displacement assay an active substance lowers the binding of a labelled ligand.
Assay [2] addresses C-C chemokine receptor type 5 (Homo sapiens, UniProt P51681). Kind of assay: Displacement of [125I]RANTES from human CCR5 expressed in CHO cell membranes coexpressing Gal6 after 6 hrs by scintillation counting analysis.

Sequence of C-C chemokine receptor type 5 (P51681 whole entry): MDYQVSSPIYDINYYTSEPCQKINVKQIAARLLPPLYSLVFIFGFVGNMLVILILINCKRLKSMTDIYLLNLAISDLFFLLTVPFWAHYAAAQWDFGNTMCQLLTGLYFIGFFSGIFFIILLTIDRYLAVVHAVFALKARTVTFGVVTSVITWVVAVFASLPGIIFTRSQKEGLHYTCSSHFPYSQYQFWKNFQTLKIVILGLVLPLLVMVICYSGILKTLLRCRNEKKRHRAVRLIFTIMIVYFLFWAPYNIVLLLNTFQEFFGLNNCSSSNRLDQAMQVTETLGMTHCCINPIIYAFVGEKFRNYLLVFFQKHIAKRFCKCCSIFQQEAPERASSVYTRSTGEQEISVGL
Sequence of C-C chemokine receptor type 2 (P41597 whole entry): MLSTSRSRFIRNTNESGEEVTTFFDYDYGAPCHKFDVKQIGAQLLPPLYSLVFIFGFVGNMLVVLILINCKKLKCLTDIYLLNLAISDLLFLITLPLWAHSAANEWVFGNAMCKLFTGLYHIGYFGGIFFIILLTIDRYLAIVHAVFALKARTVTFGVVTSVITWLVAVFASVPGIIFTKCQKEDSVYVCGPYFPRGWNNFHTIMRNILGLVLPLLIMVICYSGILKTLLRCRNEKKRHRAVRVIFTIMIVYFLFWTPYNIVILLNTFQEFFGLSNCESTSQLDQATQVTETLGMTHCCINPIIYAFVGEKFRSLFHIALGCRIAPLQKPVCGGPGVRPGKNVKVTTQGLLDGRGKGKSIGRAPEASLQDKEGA

What is called Ki is the equilibrium dissociation constant of an inhibitor or competing ligand from its target. With `CO[C@@H]1COCC[C@@H]1NC1CCN(C(=O)c2nc(C(F)(F)F)nc(N3CCc4cc(C(F)(F)F)ccc4C3)c2C)CC1`, the inhibition constant Ki in assay [1] was 2 nM; in assay [2], 150 nM.
